Measurements taken from patent US4900727A, “4H-1-benzopyran-4-one compounds which have anti-inflamatory or immunodulating action” (Hoechst Aktiengesellschaft, priority 1986, dated 1990).
Structures can show the parent of a compound that is named as a salt.

Columns and labels:
[1] = system: reverse passive Arthus reaction (RPA) in rats; assay: Reverse passive Arthus reaction (RPA) in rats; type: in vivo, Charles Foster rats of both sexes; conditions: Rattus norvegicus, po, 4 h, one hour before RPA, edema vs untreated control
Method: Charles Foster rats of both sexes, weighing 150-180 g, were sorted into groups of six animals each. 24 hours before the initiation of the RPA, the rats were shaved from the mid-dorsal region and fasted overnight. The test compounds were administered orally one hour before inducing the Arthus reaction. The RPA reaction was induced by intradermal injection of 0.1 ml of appropriately diluted rabbit anti-BSA serum. Immediately after the intradermal exposure, each rat received 0.5 ml of 0.4% bovine serum albumin intraveneously. Four hours after the intradermal challenge, each group of animals was killed by cervical dislocation. The full thickness of the skin was removed from the back of each animal, and a 12 mm diameter disk was punched out with a metal punch from the site of the antiserum injection. The wet weight of each skin site was determined as soon as possible. The edema caused by the RPA was measured as the difference (expressed in mg) between the wet weight of the site injected with antibody and that injected with normal rabbit serum. The results are expressed as the percentage inhibition or potentiation of the edema by the compound as compared with the edema induced in the untreated control animals.

[2] = system: carrageenin-induced paw edema in rats; assay: Systemic anti-inflammatory action on carrageenin-induced paw edema in rats; type: in vivo, male Charles Foster rats; conditions: Rattus norvegicus, po; decrease in paw volume, 3 and 6 hours after carrageenin; from dose/response curve; read-out: ED50
Method: Male Charles Foster rats (120-150 g) were fasted for 18 hours, with water ad libitum. The test compound dissolved in distilled water was administered orally. The control group received distilled water. 0/05 ml of 0.5% carrageenin suspension was injected subcutaneously into the plantar region of the left hind paw. Using a Maclab differential volume meter, the paw volume was determined before the carrageenin injection and 3 and 6 hours after the injection. The percentage decrease in paw volume was calculated by the following equation: [formula] The ED50 value was calculated from the dose/response curve. Six animals were used for each group. The results with representative compounds according to the invention and their salts are listed in Table 4, the substituents relating to the following formula Ia: [drawing 11]

For `CCCc1cc(=O)c2c(O)cc(O)c(C3CCN(C)CC3O)c2o1` (single isomer, unassigned; (-)) [(-) n-C3 H7 H CH3 HCl.H2 O, cis-(-)-5,7-dihydroxy-2-n-propyl-8-[4'-(3'-hydroxy-1'-methyl)-piperidinyl]-4H-1-benzopyran-4-one], the inhibition in vivo at 2.5 mg/kg ([1]; dose 2.5 mg/kg p.o.) was 42.7%, the inhibition in vivo at 5 mg/kg ([1]; dose 5.0 mg/kg p.o.) was 41.3% and the inhibition in vivo at 10 mg/kg ([1]; dose 10.0 mg/kg p.o.) was 63.7%. For the same compound, the inhibition in vivo at 20 mg/kg ([1]; dose 20.0 mg/kg p.o.) was 72.1% and the ED50 [2] was 5.8 mg/kg.
